Experimental findings from PMC7168933, “Design, Synthesis and Biochemical Evaluation of Novel Ethanoanthracenes and Related Compounds to Target Burkitt’s Lymphoma” (Pharmaceuticals, 2020) are described below.

Molecules are shown by their SMILES. pIC50: −log10 of the molar value. Like-named read-outs stand apart in the source and are kept apart here.

Series [1] relates to MUTU-1 Burkitt lymphoma cell line (EBV+). Description: cells. Particulars: Mutu-1, 24 h; for pIC50: read-out: IC50 MUTU-I 24 h.
The test system of series [2] is DG-75 Burkitt lymphoma cell line (EBV−, chemoresistant). Kind of series: cells. The conditions noted are these: Homo sapiens, DG-75, 48 h.
[3] abbreviates: read-out: MUTU-1 Cell Viability % 1 μM, 1 μM, 24 h.
Setting [4] is: read-out: MUTU-1 Cell Viability % 10 μM, 10 μM, 24 h.
Where [5] appears, read: read-out: DG-75 Cell Viability % 1 μM, 1 μM, 48 h.
[6] abbreviates: read-out: DG-75 Cell Viability % 10 μM, 10 μM, 48 h.

In general, melting point refers to the temperature, or range, at which the solid turns liquid. `C/C(=C\C12c3ccccc3C(Cl)(c3ccccc31)C1C(=O)OC(=O)C12)[N+](=O)[O-]` (centres unmarked) [Compound 13e, (E)-9-Chloro-10-(2-nitroprop-1-en-1-yl)-9,10-dihydro-9,10-[3,4]furanoanthracene-12,14-dione] came in with a melting point of 270 to 272 °C. The viability at 1 µM in series [1] (setting [3]) is 83.3%. Further, in series [1] (setting [4]), the viability at 10 µM is 101%. For the same molecule, the viability at 1 µM in series [2] (setting [5]) was determined as 78.2%. The viability at 10 µM in series [2] (setting [6]) stood at 98.2%.
On the same counts, the results for `N#CC(C#N)=CC12c3ccccc3C(c3ccccc31)C1C(=O)OC(=O)C12` (centres unmarked) [Compound 23d, 2-((12,14-Dioxo-9,10-[3,4]furanoanthracen-9(10H)-yl)methylene)malononitrile] are 196 to 198 °C, 99.8%, 82.7%, 103% and 95.7%.
For `O=C1C2C3c4ccccc4C(CC[N+](=O)[O-])(c4ccccc43)C2C(=O)N1c1ccccc1` (centres unmarked) [Compound 14c, 9-(2-Nitroethyl)-13-phenyl-9,10-dihydro-9,10-[3,4]epipyrroloanthracene-12,14-dione], the melting point fell in the range of 248 to 250 °C. The viability at 1 µM in series [1] (setting [3]) is 75.5%. For the same molecule, the viability at 10 µM in series [1] (setting [4]) came out at 79.2%. Also, the viability at 1 µM in series [2] (setting [5]) turned out to be 75.7%. Further, the viability at 10 µM in series [2] (setting [6]) was 81.4%.
The pIC50 is the IC50 on a negative log10 scale, so that one unit is a factor of ten. On to `O=C1C2C3c4ccccc4C(/C=C/[N+](=O)[O-])(c4ccccc43)C2C(=O)N1c1ccc(Br)cc1` (centres unmarked) [Compound 16g, (E)-13-(4-Bromophenyl)-9-(2-nitrovinyl)-9,10-dihydro-9,10-[3,4]epipyrroloanthracene-12,14-dione], for which the melting point lay in the range of 267 to 268 °C. Further, the pIC50 in series [1] was 6.66. Further, the viability at 1 µM in series [1] (setting [3]) turned out to be 2.1%. In addition, in series [1] (setting [4]), the viability at 10 µM was 1.1%. The viability at 1 µM in series [2] (setting [5]) came out at 28.2%. In series [2] (setting [6]), the viability at 10 µM came out at 0.55%.
Take `O=CC12c3ccccc3C(c3ccccc31)C1C(=O)NC(=O)C12` (centres unmarked) [Compound 21e]: the viability at 1 µM in series [1] (setting [3]) was determined as 96.1%; in series [2] (setting [5]) it was 76%. Also, the figures for the viability at 10 µM in series [1] (setting [4]) and in series [2] (setting [6]) were 95.1% and 71.2%, respectively.
As to `CC/C(=C\C12c3ccccc3C(c3ccccc31)C1C(=O)N(c3ccc(Cl)cc3)C(=O)C12)[N+](=O)[O-]` (centres unmarked) [Compound 17d, (E)-13-(4-Chlorophenyl)-9-(2-nitrobut-1-en-1-yl)-9,10-dihydro-9,10-[3,4]epipyrroloanthracene-12,14-dione], the melting point lay in the range of 275 to 279 °C. For the same molecule, the viability at 1 µM in series [1] (setting [3]) was found to be 102%. Besides, in series [1] (setting [4]), the viability at 10 µM was determined as 99.9%. For the same molecule, the viability at 1 µM in series [2] (setting [5]) is 96.6%. For the same molecule, in series [2] (setting [6]), the viability at 10 µM stood at 78.4%.
Regarding `N#CC(C#N)=CC12c3ccccc3C(c3ccccc31)C1C(=O)NC(=O)C12` (centres unmarked) [Compound 23e, 2-((12,14-Dioxo-9,10-[3,4]epipyrroloanthracen-9(10H)-yl)methylene)malononitrile], the melting point fell in the range of 281 to 284 °C. Moreover, the viability at 1 µM in series [1] (setting [3]) stood at 82.9%. Also, the viability at 10 µM in series [1] (setting [4]) is 83.6%. Moreover, in series [2] (setting [5]), the viability at 1 µM is 85.7%. Also, the viability at 10 µM in series [2] (setting [6]) was determined as 98.7%.
On to `O=C1NC(=O)C2C3c4ccccc4C(c4ccccc43)C12` (centres unmarked) [Compound 21b], for which the melting point is 299 to 300 °C. Moreover, the viability at 1 µM in series [1] (setting [3]) stood at 104%. Besides, the viability at 10 µM in series [1] (setting [4]) was found to be 92.8%. Besides, in series [2] (setting [5]), the viability at 1 µM turned out to be 82%. The viability at 10 µM in series [2] (setting [6]) is 74.5%.
On to `N/N=C/C12c3ccccc3C(c3ccccc31)C1C(=O)NC(=O)C12` (centres unmarked) [Compound 23g, (E)-9-(Hydrazonomethyl)-9,10-dihydro-9,10-[3,4]epipyrroloanthracene-12,14-dione], for which the melting point is 245 to 247 °C. In addition, the viability at 1 µM in series [1] (setting [3]) was 95.2%. Also, the viability at 10 µM in series [1] (setting [4]) turned out to be 101%. Also, in series [2] (setting [5]), the viability at 1 µM came out at 78.1%. For the same molecule, in series [2] (setting [6]), the viability at 10 µM was 55%.
Regarding `CNCCCC12CCC(c3ccccc31)c1ccccc12` [Maprotiline 8, maprotiline, reference compound], the viability at 1 µM in series [1] (read-out: MUTU-1 Cell Viability % 1 μM) turned out to be 93.1%; in series [2] (read-out: DG-75 Cell Viability % 1 μM) it was 102%. For the same molecule, the viability at 10 µM in series [1] (read-out: MUTU-1 Cell Viability % 10 μM) was determined as 73%; in series [2] (read-out: DG-75 Cell Viability % 10 μM), 65.1%.
With `O=[N+]([O-])CCC12c3ccccc3C(c3ccccc31)c1ccccc12` [Compound 20e, 9-(2-Nitroethyl)-9,10-dihydro-9,10-[1,2]benzenoanthracene], the melting point fell in the range of 185 to 187 °C. In addition, in series [1] (setting [3]), the viability at 1 µM was determined as 98.9%. The viability at 10 µM in series [1] (setting [4]) turned out to be 111%. The viability at 1 µM in series [2] (setting [5]) worked out at 97.6%. Besides, the viability at 10 µM in series [2] (setting [6]) turned out to be 97.2%.
Consider `CC/C(=C\C12c3ccccc3C(c3ccccc31)C1C(=O)N(c3ccc(OC)cc3)C(=O)C12)[N+](=O)[O-]` (centres unmarked) [Compound 17f], for which the melting point is 254 to 256 °C. Also, the viability at 1 µM in series [1] (setting [3]) was 86.5%. The viability at 10 µM in series [1] (setting [4]) was determined as 84.5%. In series [2] (setting [5]), the viability at 1 µM stood at 91.4%. Also, in series [2] (setting [6]), the viability at 10 µM was found to be 85.1%.
For the molecule `O=c1n(-c2ccccc2)c(=O)n2n1C1c3ccccc3C2(/C=C/[N+](=O)[O-])c2ccccc21` [Compound 18, (E)-9-(2-Nitrovinyl)-14-phenyl-9,10-dihydro-9,10-[1,2]epitriazoloanthracene-13,15-dione], the melting point lay in the range of 168 to 169 °C. Also, in series [1] (setting [3]), the viability at 1 µM stood at 75%. In addition, in series [1] (setting [4]), the viability at 10 µM stood at 13.2%. The viability at 1 µM in series [2] (setting [5]) came to 87.3%. Also, the viability at 10 µM in series [2] (setting [6]) came to 13.2%.
Molecule `COc1cc(OC)cc(N2C(=O)C3C4c5ccccc5C(/C=C/[N+](=O)[O-])(c5ccccc54)C3C2=O)c1` (centres unmarked) [Compound 16j, (E)-13-(3,5-Dimethoxyphenyl)-9-(2-nitrovinyl)-9,10-dihydro-9,10-[3,4]epipyrroloanthracene-12,14-dione] gave a melting point of 268 to 271 °C. Besides, in series [1], the pIC50 is 6.59. In addition, in series [1] (setting [3]), the viability at 1 µM was 4.2%. In addition, the viability at 10 µM in series [1] (setting [4]) stood at 5.4%. The viability at 1 µM in series [2] (setting [5]) is 33.5%. Moreover, the viability at 10 µM in series [2] (setting [6]) came out at 0.16%.
As for `O=C1C2C3c4ccccc4C(C(=O)O)(c4ccccc43)C2C(=O)N1c1ccccc1` (centres unmarked) [Compound 21i], the viability at 1 µM in series [1] (setting [3]) was found to be 103%; in series [2] (setting [5]) it was 73.2%. Further, the viability at 10 µM in series [1] (setting [4]) turned out to be 92.5%; in series [2] (setting [6]), 67.5%.
The like results for `O=C1OC(=O)C2C3c4ccccc4C(c4ccccc43)C12` (centres unmarked) [Compound 21a] were, in that order, 103%, 91.4%, 93.1% and 69.9%.
As to `O=CC12c3ccccc3C(c3ccccc31)C1C(=O)N(c3ccccc3)C(=O)C12` (centres unmarked) [Compound 21f], the viability at 1 µM in series [1] (setting [3]) and in series [2] (setting [5]) was 102% throughout. In addition, the viability at 10 µM in series [1] (setting [4]) amounted to 77.7%; in series [2] (setting [6]), 72.4%.
Turning to `O=C1OC(=O)C2C1C1c3ccccc3C2(C(=O)O)c2ccccc21` (centres unmarked) [Compound 21g], the viability at 1 µM in series [1] (setting [3]) is 99.2%; in series [2] (setting [5]), 93.1%. Also, the viability at 10 µM in series [1] (setting [4]) was found to be 88.8%; in series [2] (setting [6]) it was 65.4%.
As for `COC(=O)C1CC2c3ccccc3C1(/C=C/[N+](=O)[O-])c1ccccc12` (centres unmarked) [Compound 19c, Methyl (E)-10-(2-nitrovinyl)-9,10-dihydro-9,10-ethanoanthracene-11-carboxylate], the pIC50 in series [1] was 6.27. Moreover, the viability at 1 µM in series [1] (setting [3]) is 15.6%; in series [2] (setting [5]) it was 92.2%. In addition, the results for the viability at 10 µM in series [1] (setting [4]) and in series [2] (setting [6]) were 8.4% and 1.4%, respectively.
Regarding `O=C1NC(=O)C2C1C1c3ccccc3C2(C(=O)O)c2ccccc21` (centres unmarked) [Compound 21h], the values for the viability at 1 µM in series [1] (setting [3]) and in series [2] (setting [5]) were 92.6% and 86.3%, respectively. Moreover, the values for the viability at 10 µM in series [1] (setting [4]) and in series [2] (setting [6]) were 92% and 73.1%, respectively.
On to `O=C1OC(=O)C2C1C1c3ccccc3C2(O)c2ccccc21` (centres unmarked) [Compound 21j], for which the viability at 1 µM in series [1] (setting [3]) stood at 103%; in series [2] (setting [5]) it was 68%. The viability at 10 µM in series [1] (setting [4]) was found to be 100%; in series [2] (setting [6]), 93%.
The like results for `N/N=C/C12c3ccccc3C(c3ccccc31)C1C(=O)N(c3ccccc3)C(=O)C12` (centres unmarked) [Compound 23h, (E)-9-(Hydrazonomethyl)-13-phenyl-9,10-dihydro-9,10-[3,4]epipyrroloanthracene-12,14-dione] were, in that order, 91.1%, 85.8%, 78% and 87.4%.
On the same counts, the results for `CCOC(=O)C1CC2c3ccccc3C1(/C=C/[N+](=O)[O-])c1ccccc12` (centres unmarked) [Compound 19b, Ethyl (E)-10-(2-nitrovinyl)-9,10-dihydro-9,10-ethanoanthracene-11-carboxylate] are 48.9%, 9.8%, 0.69% and 13.4%.
For the molecule `O=CC12c3ccccc3C(c3ccccc31)C1C(=O)OC(=O)C12` (centres unmarked) [Compound 21d], the viability at 1 µM in series [1] (setting [3]) is 87.4%; in series [2] (setting [5]) it was 64.8%. The viability at 10 µM came to 88.4% in series [1] (setting [4]) and 64.7% in series [2] (setting [6]).
For the molecule `CN(C)CCCN1c2ccccc2Sc2ccc(Cl)cc21` [Compound 5], the viability at 1 µM in series [2] (setting [5]) was in the range of 6 to 28%. Further, the viability at 0.5 µM in series [2] (read-out: viable cells in DG-75 at 0.5 µM, 0.5 µM, 48 h) lay within 18 to 57%.
